Source: US20120083861A1, “SELECTIVE ACTIVATION OF NEURONS BY SINUSOIDAL ELECTRIC STIMULATION” (THE GENERAL HOSPITAL CORPORATION, priority 2010, published 2012)
Entries after “also recorded” stand apart in the source; their conditions may differ.

Test system: retinal ganglion cells
Experiment: Ganglion cell spiking response to electric stimulation near the soma with synaptic transmission blocked pharmacologically (cell-attached patch clamp, isolated retina)
Assay type: cell-based, rabbit
Conditions: for maximum number of elicited spikes in control versus with synaptic blocker: 1 sec, plot control (x) vs blocker (y), FIG. 5c, 5d; for response to 10-Hz stimulation (spikes elicited): 10 Hz sinusoidal stimulus near soma; for stimulus threshold in blocker relative to control / effect of the blockers on stimulus threshold: 50 μM CNQX or 100 μM CdCl2, paired t-test; for response to 25-Hz stimulation (spikes elicited): 25 Hz sinusoidal stimulus near soma; for synaptically mediated response of ganglion cells to stimulation: stimulation at 5-25 Hz
Experimental: The present invention provides for responses to LFSS that are synaptic in origin. To determine whether presynaptic activation played a significant role in the high sensitivity of the soma region to LFSS, the response to stimulation near the soma was measured while synaptic transmission was blocked pharmacologically. The primary source of excitatory input to ganglion cells arises via glutamatergic release from the axon terminals of bipolar cells and is mediated through AMPA/kainate receptors on the ganglion cell dendrites.
The care and use of animals followed all federal and institutional guidelines, and all protocols were approved by the Institutional Animal Care and Use Committees of the Boston VA Healthcare System and/or the Subcommittee of Research Animal Care of the Massachusetts General Hospital. New Zealand White Rabbits (˜2.5 kg) were anesthetized with injections of xylazine/ketamine and subsequently euthanized with an intracardial injection of pentobarbital sodium. Immediately after death, the eyes were removed. All procedures following eye removal were performed under dim red illumination. The front of the eye was removed, the vitreous was eliminated. The retina was separated from the retinal pigment epithelium and mounted, photoreceptor side down, to a 10-mm square piece of Millipore filter paper (0.45 μm HA Membrane Filter) that was mounted with vacuum grease to the recording chamber (˜1.0 ml volume). A 2-mm circle in the center of the Millipore paper allowed light from below to be projected on to the photoreceptors.
Patch pipettes were used to make small holes in the inner limiting membrane, and ganglion cells with large somata were targeted under visual control. Spiking was recorded with a cell-attached patch electrode (4-8MΩ) filled with superfusate. For whole-cell recordings, the patch electrode was filled with (in mM): 113 CsMeSO4, 1 MgSO4, 7.8×10^−3 CaCl2, 0.1 BABTA, 10 HEPES, 4 ATP-Na2, 0.5 GTP-Na3, 5 lidocaine N-ethyl bromide (QX314-BR), 7.5 neurobiotin chloride, pH 7.2. […] Two silver-chloride coated silver wires served as the ground and were positioned at opposite edges of the recording chamber each approximately 15 mm from the targeted cell. The retina was continuously perfused at 4 mL/min with Ames' (pH 7.4) at 36° C., equilibrated with 95% O2 and 5% CO2. Pharmacological agents were applied to the bath by switching a 3-way stopcock to a 200 mL reservoir of Ames' containing one or more of the following blockers: 50 μM 6-cyano-7-nitroquinoxaline-2,3-dione (CNQX), 100 μM cadmium chloride (CdCl2).
Pulse and sinusoidal stimuli were controlled by Multi-Channel Systems STG2004 hardware and software. Two silver-chloride coated silver wires served as the return; each was positioned approximately 8 mm from the targeted cell and approximately 12 mm from each other. The height of the stimulating electrode remained fixed at 25 μm above the inner limiting membrane. The stimulating electrode was placed either directly over the sodium-channel band on the proximal axon, or ˜1 mm lateral to the soma directly over the distal axon. Because of the use of patch clamp, spikes were clearly visible through the stimulus artifact. The efficacy of various stimulation waveforms (0.2-ms pulses and 5-Hz to 100-Hz sinusoids) was tested for the two different electrode positions.
Pulsatile stimuli were biphasic pulses (equal and opposite rectangular phases) delivered at 10 pulses per second (phase duration: 200 μsec; interphase delay: 10 ms; cathodic phase first). The interphase delay was long enough for the neural response to the cathodic pulse to be completed before the onset of the anodic phase. For each stimulus amplitude, 15-30 pulses were delivered and there was a delay of >5 sec between stimulation epochs. Pulses of this duration and over the range of stimulus amplitudes produced either a single spike or no spike. If a spike was elicited, it immediately followed the cathodal pulse. […]

[1] = single blocker in bath: 50 μM CNQX or 100 μM CdCl2 alone
[2] = single blocker: 50 μM CNQX (n=6) or 100 μM CdCl2 (n=4)

Compound | maximum number of elicited spikes in control versus with synaptic blocker (10-Hz stimulation) | response to 10-Hz stimulation (spikes elicited) (100 μM CdCl2 added to 50 μM CNQX, n=2/2) | response to 10-Hz stimulation (spikes elicited) [1] | stimulus threshold in blocker relative to control (10 Hz stimulation) | response to 25-Hz stimulation (spikes elicited) (CNQX and CdCl2 both present (n=2)) | response to 25-Hz stimulation (spikes elicited) [2] | maximum number of elicited spikes in control versus with synaptic blocker (25 Hz stimulation) | stimulus threshold in blocker relative to control (25 Hz stimulation) | maximum number of elicited spikes in control versus with synaptic blocker (100-Hz stimulation) | effect of the blockers on stimulus threshold (100-Hz stimulation) | synaptically mediated response of ganglion cells to stimulation (cadmium applied in addition to CNQX) | synaptically mediated response of ganglion cells to stimulation (CNQX applied)
[Cl][Cd][Cl] [CdCl2, cadmium chloride] | largely clustered around the x-axis | mostly eliminated | completely eliminated; also recorded: greatly reduced | increased significantly | greatly reduced | greatly reduced | mostly scattered between the line of unity slope and the x-axis | increased significantly | largely clustered around the line of unity slope | not significant | completely abolish | –
N#Cc1cc2c(cc1[N+](=O)[O-])=NC(=O)C(=O)N=2 [CNQX, 6-cyano-7-nitroquinoxaline-2,3-dione] | largely clustered around the x-axis | – | greatly reduced; also recorded: completely eliminated | increased significantly | – | greatly reduced; also recorded: blocks much of this response | mostly scattered between the line of unity slope and the x-axis | increased significantly | largely clustered around the line of unity slope | not significant | – | greatly reduced
